Experimental data: patent US20240110004A1 (Northwestern University, priority 2022, published 2024)
Where no end group is shown, it is not given here.

Legend:
[1] = Dulbecco's modified Eagle medium (DMEM) supplemented with 10% fetal bovine serum (FBS); conditions: 37° C.
pepsin = assay: pepsin; conditions: 37° C., up to 450 min
[2] = Dulbecco's modified Eagle medium (DMEM) supplemented with 25% fetal bovine serum (FBS); conditions: 37° C.
[3] = enzymes (0.1 μM) in DPBS (pH 7.4) or hydrochloric acid solution (pH 2); conditions: 37° C.
HdhQ111 cells [4] = assay: Cell viability (cell rescue) of serum-starved HdhQ111 cells; type: cell-based, mouse; conditions: 3 μM with respect to peptide, once a day for 3 days; compared to the vehicle control
Procedure: FIG. 3A: Cell viability of HV3-TAT peptide and PLPs. Compounds treated to the HdhQ111 cells once a day for 3 days. Concentration was 3 μM with respect to peptide. FIG. 3B: VCP binding assay results for HV3-TAT, P1, P2, and P4.
Cell Viability Methods: In vitro assays were carried out to examine the bioactivity of the PLPs, P1, P2, P3, and P4 and to compare against the known, active HV3-TAT. […] HdhQ111 cells were immortalized from knock-in mice carrying 111 CAG repeats in the mouse Htt gene.
To verify that the PLPs retain bioactivity after being exposed to enzymes or serum treatments, the viability of HD mouse mutant striatal HdhQ111 cells was assessed following treatment with HV3-TAT and P1. […] Cells were maintained at 33° C. and 5% CO2 with a relative humidity of 95%. HdQ111 cells were plated in 96-well plates at a density of 5000 per well and then left to attach for 24 h. Cells were treated with HV3-TAT or PLPs at 3 μM with respect to peptide once a day, for 3 days. The medium was replaced every day. After 72 h, cells were washed 3 times with PBS buffer. At this point, 20 μL of CTB reagent in 80 uL of medium was added, and the cells incubated for 3 hours at 37° C. Fluorescence was measured at 590 nm with excitation at 560 nm using a Perkin Elmer EnSpire plate reader. The average background fluorescence of CTB in media without cells was subtracted from the average fluorescence readings of the experimental wells. Viability was calculated as the average background-subtracted signal in a well compared to that of a negative control well (treatment with vehicle or media). Three replicates were performed for each independent sample. 10% DMSO was used as a positive control and untreated cells in complete medium as a negative control. Viability is reported as a percentage of untreated cells.

HdhQ111 cells [5] = assay: Mitochondrial fragmentation assay; type: cell-based, mouse; conditions: compared to vehicle treatment group, at least 100 cells per group
Procedure: FIG. 8: Mitochondrial fragmentation assay. The percentage of HdhQ111 cells with fragmented mitochondria relative to the total number of cells was quantitated. At least 100 cells per group were counted.
FIG. 9: Mitochondrial fragmentation assay. Mitochondrial morphology was determined by staining cells with anti-Tom20 antibody. Nuclei: Hoechst 33342 stain. […] Scale Bars: 60 μm; 12 μm for inset.
Mitochondrial Fragmentation Methods: As preventing the fragmentation of the mitochondria is important for maintaining the health of striatal cells in the HD in vitro model, the PLP's abilities were tested in this regard.

[6] = target: T1, interaction between VCP and mtHtt (Homo sapiens, UniProt P55072); assay: VCP binding assay: association of VCP to mtHtt by immunoprecipitation and western blot in HEK293 cells; type: cell-based; conditions: HEK293 cells co-transfected with GFP-VCP and myc-Q73 FL, 3 μM, three doses
T1 construct: GFP; expressed in transfected cells; host or cells: HEK293
Procedure: Therefore, target engagement protein binding assays were conducted. HEK293 cells were cultured and plated one day before treatment. Cells were pre-treated with HV3-TAT or PLPs at 3 μM for 2 h. Cells were then co-transfected with GFP-VCP and myc-Q73 FL plasmids. Cells were treated with a second dose of peptide or PLPs 6 hours after transfection, and a final third dose of peptide or PLPs treatment was administered 24 hours after transfection. Cell total lysate was harvested 48 hours after transfection, and to confirm binding of PLPs to VCP in cells, association of VCP to mtHtt was quantified by immunoprecipitation (IP) followed by western blot upon treatment of HV3-TAT peptide and PLPs.

[7] = mouse, in vivo
HdhQ111 cells [8] = assay: Mitochondrial localization in live HdhQ111 cells; type: cell-based, mouse; conditions: 3 μM, Mitotracker staining
Procedure: FIG. 7: Mitochondrial localization in live HdhQ111 cells. HdhQ111 cells were treated with HV3-TAT-Rho peptide, P1-Rho, and rhodamine dye alone at a concentration of 3 μM. Yellow (i.e., “localization” in FIG. 7) indicates colocalization of green and red channels, signifying localization to the mitochondria. Mitochondria: Mitotracker Green FM (green channel). Material: Rhodamine (red channel). Nuclei: Hoechst 33342 stain (blue channel). Scale Bars: 60 μm; 12 μm for inset.
Mitochondrial Localization Methods: A decisive pathologic hallmark for HdhQ111 cells is mitochondrial fragmentation. Since the mitochondrial membrane is the specific intracellular target location for the designed system, mitochondrial localization of P1-Rho in HdhQ111 cells was evaluated. To visualize mitochondrial localization, the mitochondria were stained with Mito Tracker.

HdhQ111 cells [9] = assay: Cell uptake by confocal microscopy and flow cytometry; type: cell-based, mouse; conditions: compared to the HV3-TAT-Rho peptide and rhodamine dye control
Procedure: Scale bars: 60 μm; 12 μm for inset. Cell Membrane: wheat germ agglutinin-Alexa 488 (green channel). Material: Rhodamine (red channel). Nuclei: Hoechst 33342 stain (blue channel).
Cell Uptake Methods: A major drawback for most peptide-based drugs is poor innate cell membrane permeability, such that many peptide-based drugs fail to reach their putative intracellular targets. Cellular uptake was evaluated by confocal microscopy and flow cytometry using a rhodamine dye labeled version of HV3-TAT (HV3-TAT-Rho) and a rhodamine labeled version of P1 (P1-Rho, e.g., as shown in FIG. 28A). FIG. 28B provides the relative fluorescent intensities of rhodamine alone, HV3-TAT-Rho, and P1-Rho—rhodamine showing near 1:1 addition of dye on to compounds.

HdhQ111 cells [10] = assay: Accumulation assay, flow cytometry 2 and 7 days after a single treatment; type: cell-based, mouse; conditions: two and seven days after one treatment

T1 sequence (P55072 whole entry): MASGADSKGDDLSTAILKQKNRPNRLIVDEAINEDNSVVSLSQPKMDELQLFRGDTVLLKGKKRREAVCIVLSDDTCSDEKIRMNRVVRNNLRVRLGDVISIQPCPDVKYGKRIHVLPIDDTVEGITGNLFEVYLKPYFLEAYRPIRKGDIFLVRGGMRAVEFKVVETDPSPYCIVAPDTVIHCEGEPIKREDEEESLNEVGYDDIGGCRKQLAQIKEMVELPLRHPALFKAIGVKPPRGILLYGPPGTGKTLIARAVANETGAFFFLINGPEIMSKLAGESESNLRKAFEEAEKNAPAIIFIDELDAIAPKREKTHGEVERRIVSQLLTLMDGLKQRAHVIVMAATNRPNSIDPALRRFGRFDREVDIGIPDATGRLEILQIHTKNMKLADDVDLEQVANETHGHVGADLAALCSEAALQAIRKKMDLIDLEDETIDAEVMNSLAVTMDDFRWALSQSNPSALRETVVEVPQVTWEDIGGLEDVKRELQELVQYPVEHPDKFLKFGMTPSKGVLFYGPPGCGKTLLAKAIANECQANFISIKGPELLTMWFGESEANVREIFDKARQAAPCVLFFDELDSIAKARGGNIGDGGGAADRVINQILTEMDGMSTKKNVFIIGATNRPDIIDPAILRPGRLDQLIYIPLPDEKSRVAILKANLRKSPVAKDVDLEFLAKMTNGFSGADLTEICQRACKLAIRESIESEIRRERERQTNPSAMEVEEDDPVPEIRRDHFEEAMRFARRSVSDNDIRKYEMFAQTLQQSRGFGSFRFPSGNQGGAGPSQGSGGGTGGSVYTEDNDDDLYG

**Q.** Which results are given for “PLP homopolymer having peptide side chains of SEQ ID: 1 (HVLVMSATRR)”?
**A.** not cleaved [1]: stability of P1 seen with serum treatments; not cleaved (pepsin): no cleavage observed for up to 450 min; not cleaved [2]: stability of P1 seen with serum treatments; not cleaved [3]: maintained molecular weight running together with the untreated P1 control

**Q.** What does the source list for “P4: PLP homopolymer having peptide side chains of SEQ ID: 4 (HVLVMSATKKKK) (HVLVMSATKKKK-NH2; not fully specified (N-terminus); also: side chains of polynorbornene homopolymer (PLP))”?
**A.** cell viability (HdhQ111 cells [4]): higher significance than P3; fragmented mitochondria (HdhQ111 cells [5]): significantly fewer fragmented mitochondria; association of VCP to mtHtt (VCP binding) [6]: exhibited evidence for binding

**Q.** For “P2: PLP homopolymer having peptide side chains of SEQ ID: 2 (HVLVMSATKK) (HVLVMSATKK-NH2; not fully specified (N-terminus); also: side chains of polynorbornene homopolymer (PLP))”, which cell viability (HdhQ111 cells [4]) is on record?
**A.** higher significance than P3

**Q.** Which results are given for “P1-Gd: P1 PLP terminated with the Gd-DOTA terminating agent (contrast agent tag) for ICPMS quantification (HVLVMSATRR-NH2; not fully specified (N-terminus); also: side chains of polynorbornene homopolymer (PLP, ROMP), Gd-DOTA terminating agent on polymer terminus)”?
**A.** biodistribution, main organs [7]: majority of the compound injected ends up in the liver and kidney; detection in the CNS [7]: detectable in the CNS; increase in half-life compared to the HV3-TAT peptide [7]: 3000 fold; distribution half-life ([7]; iv, 10 mg/kg): 20 min; elimination half-life ([7]; iv, 10 mg/kg): 152 h

**Q.** With “P1-Rho: rhodamine labeled version of P1 (HVLVMSATRR-NH2; not fully specified (N-terminus); also: side chains of polynorbornene homopolymer (PLP), rhodamine label (site not given here))” as the substance, how does the mitochondrial localization (HdhQ111 cells [8]) read?
**A.** exhibited overlapping signals with mitochondria

**Q.** And the “cell association by flow cytometry” value (HdhQ111 cells [9])?
**A.** significantly better cell association

**Q.** What about the “presence of compound in cells after one initial treatment” value (HdhQ111 cells [10]) of the same substance?
**A.** detected
